Square brackets hold non-standard residues; d marks the D form. Peptide text beside a SMILES is read from it.

Two compounds from patent US7220822B2, “CD28 mimetics for blocking T cell mediated immune reactions” (The Ohio State University, priority 2000, dated 2007) can be followed below.

Holding throughout (format): cell-based, mouse
Assay [1] deals with CD4+ LNC from Vα4/Vβ8.2 TCR transgenic mice. The conditions noted are these: CD4+ LNC and spleen cells, NAc 1-11 10 μg/ml, all concentrations used. How it is done: The in vitro effect of varying concentration of the CD 28 peptide mimetics on CD4+ lymph node cells and spleen cells from transgenic mice bearing the Vα 4 Vβ8.2 TCR specific for MBP Ac 1-11 was determined.
CD4+ T cells were purified from pooled peripheral lymph nodes (inguinal, axillary, brachial, cervical, popliteal), and mesenteric lymph nodes and spleen of 6–8 wk old Vα4/Vβ8.2 TCR transgenic mice by positive selection. Single cell suspensions were prepared by lympholyte M gradient, washed, counted and incubated with magnetic bead conjugated anti-mouse CD4 (L3T4) (Miltenyi Biotech Corporation) followed by positive selection using magnetic selection columns. Purity of the CD4^+ cells was greater than 90% as assessed by staining with FITC labeled anti-mouseVβ8.2 mAb (Pharmingen). During the selection process, T cells maintain a naïve phenotype with no evidence for T cell activation as measured by proliferation in culture. Purified CD4+ T-cells (5×10^4 cells/well) were cultured together with wild type splenocytes from B10.PL mice as APC's (10^5 cells/well) in RPMI 1640 containing 10% FCS, 25 mM HEPES, 2 mM L-glutamine, 50 U/ml penicillin, 50 μg/ml streptomycin, and 5×10–5 M 2-ME in round-bottom 96-well plates and MBP (40 μg/ml) or MBP NAc1-11 (10 μg/ml) or media only in the presence or absence of synthetic CD28 peptide analogues at different concentrations in triplicate wells for 72 h, including a final 18-h pulse with [^3H] thymidine. Cultures were harvested onto glass-fiber mats using a Skatron harvester (Skatron, Sterling, Va.) and were counted by liquid scintillation on LKB Betaplate (LKB, Rockville, Md.). The means of the triplicate were determined and the results are expressed as delta cpm (mean counts per minute of cultures with Ag-mean counts per minute of cultures with medium alone)±SD.

The subject of assay [2] is CD4+ LNC bearing Vα4 Vβ8.2 TCR. Briefly: IL-2 ELISPOT of antigen-stimulated CD4+ lymph node cells in vitro. The conditions noted are these: for number of IL-2 secreting NAc1-11 responders (in words): 75 μM and 100 μM peptide, p<0.05; for frequency of IL-2 secreting cells (in words): compared to untreated cells. Set-up: frequency of IL-2 secreting cells (in words): dose or concentration left out as unconfirmed. How it is done:
Augmentation of T cell proliferation following CD28 ligation is a result of its ability to increase the synthesis of IL-2. To determine whether the observed reduction in proliferation is reflected in the IL-2 secretion, the ELISPOT assay was performed.
Ninety-six well unifilter plates (Polyfiltronics, Rockland, Md.) were coated overnight at 4° C. with rat anti-mouse IL-2 (Clone JES6-1A12) (Pharmingen, Calif.) at 4 μg/ml. The plates were then washed 4× with sterile PBS and blocked with 1% BSA in DMEM for 2 h at room temperature. Subsequently, isolated single cell suspensions of CD4+ LNC (5×10^6 cells/ml) and splenocytes (10×10^6 cells/ml) were added with the antigens and CD28 peptides under the conditions as specified for the proliferation assays. After 24 h of culture in the incubator, the cells were removed by washing 3× with PBS and 4× with PBS containing Tween (1:2000) (PBST). Then biotinylated anti mouse-IL-2 (Clone JES6-5H4) (Pharmingen, Calif.) 2 μg/ml was added and incubated at 4° C. overnight. After washing 3× with PBST and 3× with PBS, goat anti-biotin antibody conjugated to alkaline phosphatase (Vector Laboratories Inc, Burlingame, Calif.) diluted to 1:1000 in PBST containing 1% BSA was added and incubated for 2 h at room temperature. The spots were visualized by adding BCIP/NBT phosphatase substrate (Kirkeguard & Perry Laboratories, Gaithesburg, Md.). Image analysis of ELISA spot assays was performed on a Series 1 Immunospot Image Analyzer (Autoimmun Diagnostika (US) Inc.) customized for analyzing ELISA spots to meet objective criteria for size, chromatic density, shape and color.

Assay [3] relates to CD4+Vβ8.2+ spleen cells. Briefly: Apoptosis (TUNEL, flow cytometry) of antigen-stimulated CD4+Vβ8.2+ spleen cells in vitro. The conditions noted are these: 150 μM peptide, data not shown. How it is done: To investigate whether the observed decrease in proliferative responses following treatment with CD28 peptides is a result of cell loss, cell death was measured by enzymatic in-situ labeling. Apoptotic cells among MBP NAc1-11 stimulated TCR Vβ 8.2+ CD4+ T cells were detected by staining with FITC labeled Tdt (terminal deoxynucleotidyl transferase). Cells incubated in DNAse served as positive control.
CD4+ T cells from pooled lymph nodes and spleen from B10.PL TCR Vβ 8.2 Vα 4 transgenic mice were cultured in RPMI 1640 in a 96 well round-bottom plate, essentially under the conditions specified for proliferation assays. Cells were harvested at the end of 48 hours and apoptotic cells among TCR Vβ 8.2+ CD4+ T cells were detected by the TUNEL method. Briefly, after washing twice with PBS containing 1-% rat serum, the cells were stained with PE labeled anti-mouseVβ 8.1,8.2 TCR (clone MR5-2) (Pharmingen, San Diego, Calif.) for 30 min at room temperature and washed. […] After washing, the DNA strand breaks in the cells were detected by incubating the cells with fluorescein labeled TUNEL mix (terminal deoxynucleotidyl transferase (Tdt)) for 60 min at 37° C. using an in situ cell death detection kit (Boehringer Mannheim, Mannheim, Germany) according to the manufacturer's recommendations. […] Cells were then washed with PBS and analyzed by flow cytometry.

As to `CC[C@@H](C)[C@@H](NC(C)=O)C(=O)N[C@@H](C(=O)NCC(=O)N[C@H](CC(N)=O)C(=O)N[C@H](CO)C(=O)N[C@H](CCCNC(=N)N)C(=O)N[C@H](CCC(=O)O)C(=O)N[C@H](CC(N)=O)C(=O)N[C@H](CC(=O)O)C(=O)N[C@H](CC(C)C)C(=O)N[C@H](Cc1ccc(O)cc1)C(=O)N1CCC[C@@H]1C(=O)N1CCC[C@@H]1C(=O)N1CCC[C@@H]1C(=O)N[C@H](Cc1ccc(O)cc1)C(=O)N[C@H](CCSC)C(=O)N[C@H](Cc1ccccc1)C(=O)N[C@H](CCC(=O)O)C(=O)N[C@@H](C(=O)N[C@H](CCCCN)C(N)=O)[C@H](C)CC)[C@H](C)O` [RI CD28] (Ac-[dI][dT]G[dN][dS][dR][dE][dN][dD][dL][dY][dP][dP][dP][dY][dM][dF][dE][dI][dK]-NH2), the “proliferative response / inhibition of T cell proliferation (in words)” value in assay [1] is “significantly less”. Besides, in assay [2], the “number of IL-2 secreting NAc1-11 responders (in words)” value was “Significant decrease” and the “frequency of IL-2 secreting cells (in words)” value was “significantly reduced”. The “apoptosis (in words)” value in assay [3] was “increase in apoptosis”.

Regarding `CC[C@H](C)[C@H](NC(=O)[C@@H](NC(=O)CNC(=O)[C@H](CC(N)=O)NC(=O)[C@H](CO)NC(=O)[C@H](CCCNC(=N)N)NC(=O)[C@H](CCC(=O)O)NC(=O)[C@H](CC(N)=O)NC(=O)[C@H](CC(=O)O)NC(=O)[C@H](CC(C)C)NC(=O)[C@H](Cc1ccc(O)cc1)NC(=O)[C@@H]1CCCN1C(=O)[C@@H]1CCCN1C(=O)[C@@H]1CCCN1C(=O)[C@H](Cc1ccc(O)cc1)NC(=O)[C@H](CCSC)NC(=O)[C@H](Cc1ccccc1)NC(=O)[C@H](CCC(=O)O)NC(=O)[C@@H](NC(=O)[C@H](CCCCN)NC(C)=O)[C@@H](C)CC)[C@@H](C)O)C(N)=O` [EL CD28] (Ac-KIEFMYPPPYLDNERSNGTI-NH2), the “proliferative response / inhibition of T cell proliferation (in words)” value in assay [1] was “significantly less”. For the same compound, in assay [2], the “number of IL-2 secreting NAc1-11 responders (in words)” value was “Significant decrease” and the “frequency of IL-2 secreting cells (in words)” value was “significantly reduced”. Also, the “apoptosis (in words)” value in assay [3] is recorded as “increase in apoptosis”.
